Data: ChEMBL document CHEMBL1201862, “PubChem BioAssay data set” (2004)
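Following 48 hours of exposure in 96-well plates, responses at five concentrations were used to interpolate endpoints linearly. GI50 marks 50% less growth.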 Active and inactive are the calls of the source. No stated cut-off is given here; in the data, active = GI50 up to about 1.1 µM and inactive = higher.

What was measured:
Assay in all cases: inhibition of tumour cell growth, NCI panel, 48 h
HT-29 = tested on: HT-29
SK-MEL-5 = tested on: SK-MEL-5
NCI-H460 = tested on: NCI-H460
OVCAR-5 = tested on: OVCAR-5
CCRF-CEM = tested on: CCRF-CEM
NCI-H23 = tested on: NCI-H23
OVCAR-4 = tested on: OVCAR-4
RXF 393 = tested on: RXF 393
OVCAR-8 = tested on: OVCAR-8
KM12 = tested on: KM12
SNB-75 = tested on: SNB-75
SK-MEL-2 = tested on: SK-MEL-2
ACHN = tested on: ACHN
SF-295 = tested on: SF-295
LOX IMVI = tested on: LOX IMVI
HOP-92 = tested on: HOP-92
RPMI-8226 = tested on: RPMI-8226
SR = tested on: SR

Row | SMILES | GI50 (HT-29) | GI50 (SK-MEL-5) | GI50 (NCI-H460) | GI50 (OVCAR-5) | GI50 (CCRF-CEM) | GI50 (NCI-H23) | GI50 (OVCAR-4) | GI50 (RXF 393) | GI50 (OVCAR-8) | GI50 (KM12) | GI50 (SNB-75) | GI50 (SK-MEL-2) | GI50 (ACHN) | GI50 (SF-295) | GI50 (LOX IMVI) | GI50 (HOP-92) | GI50 (RPMI-8226) | GI50 (SR)
1 | COc1cc2cc(OC(C)=O)c3cc4c(cc3c2c(OC)c1OC)OCO4 | > 100 µM (inactive) | > 100 µM (inactive) | > 100 µM (inactive) | > 100 µM (inactive) | > 100 µM (inactive) | > 100 µM (inactive) | > 100 µM (inactive) | > 100 µM (inactive) | > 100 µM (inactive) | > 100 µM (inactive) | > 100 µM (inactive) | > 100 µM (inactive) | > 100 µM (inactive) | > 100 µM (inactive) | > 100 µM (inactive) |  |  | 
2 | CCOc1ccccc1N1C(=O)C(=O)C(c2nc3ccccc3o2)/C(=N\N)C1=O (stereo unspecified) | 70.5 µM (inactive) | > 100 µM (inactive) |  | > 100 µM (inactive) | > 100 µM (inactive) | > 100 µM (inactive) | 27.1 µM (inactive) | > 100 µM (inactive) | > 100 µM (inactive) | > 100 µM (inactive) | 27.7 µM (inactive) | > 100 µM (inactive) | 88.1 µM (inactive) | > 100 µM (inactive) | > 100 µM (inactive) | > 100 µM (inactive) | > 100 µM (inactive) | 
3 | COc1ccc(C(N)=O)cc1/N=N/N(C)C | > 100 µM (inactive) | > 100 µM (inactive) | > 100 µM (inactive) | > 100 µM (inactive) | > 100 µM (inactive) | > 100 µM (inactive) | > 100 µM (inactive) |  | 78.3 µM (inactive) | > 100 µM (inactive) | > 100 µM (inactive) | > 100 µM (inactive) | > 100 µM (inactive) | > 100 µM (inactive) | > 100 µM (inactive) | > 100 µM (inactive) | > 100 µM (inactive) | 39.8 µM (inactive)
4 | O=C(CCn1[nH]c(=O)c(Cl)c(Cl)c1=O)NOCCCc1ccccc1 | > 100 µM (inactive) | > 100 µM (inactive) | > 100 µM (inactive) | > 100 µM (inactive) | > 100 µM (inactive) | > 100 µM (inactive) | > 100 µM (inactive) |  | > 100 µM (inactive) | > 100 µM (inactive) | > 100 µM (inactive) | > 100 µM (inactive) | > 100 µM (inactive) | > 100 µM (inactive) | > 100 µM (inactive) | > 100 µM (inactive) | > 100 µM (inactive) | > 100 µM (inactive)
5 | CC1(C=O)C(=O)CCC2(C)C3CC(=O)OC3CCC12 (stereo unspecified) | > 100 µM (inactive) | > 100 µM (inactive) | > 100 µM (inactive) | > 100 µM (inactive) | > 100 µM (inactive) | > 100 µM (inactive) | > 100 µM (inactive) | > 100 µM (inactive) | > 100 µM (inactive) | > 100 µM (inactive) | > 100 µM (inactive) | > 100 µM (inactive) | > 100 µM (inactive) | > 100 µM (inactive) | > 100 µM (inactive) | > 100 µM (inactive) | > 100 µM (inactive) | 
6 | CCC(=O)N1C(=S)SC[C@H]1C(=O)OC | > 100 µM (inactive) | > 100 µM (inactive) |  | > 100 µM (inactive) | 69.2 µM (inactive) | > 100 µM (inactive) | > 100 µM (inactive) | > 100 µM (inactive) | > 100 µM (inactive) | > 100 µM (inactive) | > 100 µM (inactive) |  | > 100 µM (inactive) | > 100 µM (inactive) | > 100 µM (inactive) | > 100 µM (inactive) |  | > 100 µM (inactive)
7 | Clc1ccccc1CN1COc2c(ccc3cccnc23)C1 |  | 2.77 µM (inactive) | 5.19 µM (inactive) | 7.41 µM (inactive) | 0.405 µM (active) | 1.62 µM (inactive) | 3.6 µM (inactive) | 3.4 µM (inactive) | 4.19 µM (inactive) | 3.98 µM (inactive) | 7.91 µM (inactive) | 1.72 µM (inactive) | 3.72 µM (inactive) | 3.2 µM (inactive) | 4.4 µM (inactive) | 2.36 µM (inactive) | 2.73 µM (inactive) | 
8 | COC(=O)C1C(=O)CC2CCCCC21 (stereo unspecified) |  | > 100 µM (inactive) | > 100 µM (inactive) |  | > 100 µM (inactive) |  | > 100 µM (inactive) | > 100 µM (inactive) |  | > 100 µM (inactive) | > 100 µM (inactive) | > 100 µM (inactive) | > 100 µM (inactive) |  |  |  | > 100 µM (inactive) | > 100 µM (inactive)
9 | CN(/N=C/c1cccc2cccnc12)c1c([N+](=O)[O-])cc([N+](=O)[O-])cc1[N+](=O)[O-] | 69.2 µM (inactive) | 64.9 µM (inactive) | > 100 µM (inactive) | > 100 µM (inactive) |  | > 100 µM (inactive) | > 100 µM (inactive) | > 100 µM (inactive) | > 100 µM (inactive) | 25.2 µM (inactive) | > 100 µM (inactive) | > 100 µM (inactive) | > 100 µM (inactive) | > 100 µM (inactive) | 45.3 µM (inactive) | > 100 µM (inactive) | > 100 µM (inactive) | 
10 | O=C1CCC(=O)C1=NNc1ccccc1 | > 100 µM (inactive) | 80.4 µM (inactive) | > 100 µM (inactive) | > 100 µM (inactive) | > 100 µM (inactive) | > 100 µM (inactive) | > 100 µM (inactive) | > 100 µM (inactive) | > 100 µM (inactive) | > 100 µM (inactive) | > 100 µM (inactive) | > 100 µM (inactive) | > 100 µM (inactive) | > 100 µM (inactive) | > 100 µM (inactive) | > 100 µM (inactive) |  | 
11 | CCOC(=O)C(=O)Nc1ccc(C)c(C)c1 | > 56.2 µM (inactive) | > 100 µM (inactive) | > 60.4 µM (inactive) | > 100 µM (inactive) | > 100 µM (inactive) | > 100 µM (inactive) | > 100 µM (inactive) | > 100 µM (inactive) |  | > 53.8 µM (inactive) | > 100 µM (inactive) | > 100 µM (inactive) | > 100 µM (inactive) | > 100 µM (inactive) | > 56.1 µM (inactive) |  | > 100 µM (inactive) | < 0.01 µM (active)
12 | CCCCCCCCCCCCCCCC(=O)OCCOCCOCCOCc1ccccc1 | > 100 µM (inactive) | > 100 µM (inactive) | > 100 µM (inactive) | > 100 µM (inactive) |  | > 100 µM (inactive) | > 100 µM (inactive) | > 100 µM (inactive) | > 100 µM (inactive) | > 100 µM (inactive) | 65.3 µM (inactive) | > 100 µM (inactive) | > 100 µM (inactive) | 26 µM (inactive) | > 100 µM (inactive) | 21.1 µM (inactive) |  | 
13 | CC1=N/C(=C\c2ccc(N)cc2)C(=O)N1Nc1nnc(NN2C(=O)/C(=C/c3ccc(N)cc3)N=C2C)c2ccccc12 | > 100 µM (inactive) | 45.2 µM (inactive) | > 100 µM (inactive) | > 100 µM (inactive) | 18.6 µM (inactive) | > 100 µM (inactive) | 33 µM (inactive) | 22.5 µM (inactive) | > 100 µM (inactive) | 37.6 µM (inactive) | 5.05 µM (inactive) |  | > 100 µM (inactive) | 26.6 µM (inactive) | 41.9 µM (inactive) | > 100 µM (inactive) | 26.4 µM (inactive) | 30.1 µM (inactive)
14 | N=C(N)SCc1cn2ccccc2n1 | > 100 µM (inactive) | > 100 µM (inactive) | > 100 µM (inactive) | > 100 µM (inactive) | > 100 µM (inactive) | > 100 µM (inactive) | > 100 µM (inactive) |  | > 100 µM (inactive) | > 100 µM (inactive) | > 100 µM (inactive) | > 100 µM (inactive) | > 100 µM (inactive) | > 100 µM (inactive) | > 100 µM (inactive) |  | > 100 µM (inactive) | > 100 µM (inactive)
15 | O=C1c2cccc3c(Cl)ccc(c23)C(=O)N1CCCN1CCN(CCCN2C(=O)c3cccc4c(Cl)ccc(c34)C2=O)CC1 | > 100 µM (inactive) | > 100 µM (inactive) | > 100 µM (inactive) | > 100 µM (inactive) | > 100 µM (inactive) | 97.1 µM (inactive) | > 100 µM (inactive) |  | 50.9 µM (inactive) | > 100 µM (inactive) | 40.2 µM (inactive) | > 100 µM (inactive) | 81.8 µM (inactive) | 97.1 µM (inactive) | > 100 µM (inactive) | > 100 µM (inactive) | > 100 µM (inactive) | 
16 | O=C1OC2(c3ccccc3Oc3ccccc32)c2ccccc21 | > 100 µM (inactive) | > 100 µM (inactive) | > 100 µM (inactive) | > 100 µM (inactive) | > 100 µM (inactive) | > 100 µM (inactive) | > 100 µM (inactive) |  | > 100 µM (inactive) | > 100 µM (inactive) | > 100 µM (inactive) | > 100 µM (inactive) | > 100 µM (inactive) | > 100 µM (inactive) | > 100 µM (inactive) | > 100 µM (inactive) | > 100 µM (inactive) | > 100 µM (inactive)
17 | O=C1/C(=C/c2ccc(Br)cc2)CCC/C1=C\c1ccc(Br)cc1 | 1.88 µM (inactive) | 13.9 µM (inactive) | 10.5 µM (inactive) |  | 5.11 µM (inactive) | 5.69 µM (inactive) | 10.1 µM (inactive) | 5.14 µM (inactive) | 3.95 µM (inactive) | 3.4 µM (inactive) | 20.6 µM (inactive) | 20.9 µM (inactive) | 12.2 µM (inactive) |  |  |  | 2.04 µM (inactive) | 
